From patent US20070186288A1, “Zebrafish models of acute myelogenous leukemia” (priority 2005, published 2007)
“Also recorded” adds a separate entry of the source. Like-named read-outs stand apart in the source and are kept apart here.

How the values were obtained:
[1] = test system: AML1-ETO phenotype in Tg(hsp:AML1-ETO) zebrafish embryos; type: in vivo; conditions: for percentage of AML1-ETO-expressing embryos without circulating blood: 500 μM morpholino solution injected into 1-cell stage embryos, heat treated at 4, 16, 24 hpf, scored at 44 hpf, non-injected control 90.2%
Experimental: The Petri dishes containing zebrafish embryos were transferred from the growth temperature of 23-28.5° C. to a 37-42° C. incubator and incubated for 1 hour before returning them back to the normal temperature. The heat treatment may be repeated three to four times over 12-hour intervals as specified below. The percentages of embryos with phenotype were scored by visual inspection of the loss of circulating blood in the embryos after 40 hpf.
The morpholino antisense oligonucleotides hAML1-MO (5′-[…]; SEQ ID NO:3), which targets the translation start codon of human AML1, and zTIS11b-MO (5′-[…]; SEQ ID NO:4), which targets the splice donor site of zebrafish TIS11b transcripts, were obtained from Gene-Tools, LLC. For microinjection, 500 μM hAML1-MO or 200 μM zTIS11b-MO in 0.3× Danieau's buffer (17 mM NaCl, 2 mM KCl, 0.12 mM MgSO4, 1.8 mM Ca(NO3)2 and 1.5 mM HEPES, pH 7.6) were prepared and injected as described (Nasevicius et al., Nat. Genet. 26:216-220, 2000).
In AML1-ETO-expressing fish, the absence of circulating cells and the accumulation of non-circulating hematopoietic cells in the ICM are readily detected by eye. Therefore, circulation may be a simple surrogate phenotype for detecting the presence or absence of the AML1-ETO phenotype. To confirm that the loss-of-circulation phenotype is dependent on the inducible expression of AML1-ETO in the transgenic zebrafish, we tested whether this phenotype can be rescued by blocking AML1-ETO expression using an antisense morpholino oligonucleotide (hAML1-MO) complementary to the translation start site of the human AML1-ETO mRNA. Homogeneous transgenic embryo clutches were obtained from crosses between homozygous Tg(hsp:AML1-ETO) and wild-type fish. These embryos were heat treated at 4, 16, and 24 hpf, and were then scored at 44 hpf. […] On the other hand, in the heat-treated Tg(hsp:AML1-ETO) fish embryos, most of the blood cells accumulate in the ICM, especially at the location close to the end of the yolk extension, and fail to enter circulation. However, injection of HAML1-MO into 1-cell stage embryos restores the circulation in the transgenic embryos.
Zebrafish embryos readily absorb small molecules from the surrounding medium, rendering them a powerful tool to assess pharmacological efficacy (Peterson et al., Methods Cell. Biol. 76:569-591, 2004; Zon et al., Nat. Rev. Drug Discov. 4:35-44, 2005). […] While ATRA is generally not very effective in differentiating t(8;21) leukemic cells, complete remission of a patient with t(8;21) translocation has been reported (Chen et al., Chin. Med. J. (Engl). 115:58-61, 2002). We tested the efficacy of ATRA in reversing the zebrafish AML1-ETO phenotype. In this experiment, we heat-shocked the embryos three times instead of four times at 37° C. in order to reduce the phenotypic penetrance in the Tg(hsp:AML1-ETO) fish embryos to around 80%. Meanwhile, ATRA was added at 24 hpf.
The upregulation of TIS11b had been hypothesized to contribute to AML pathogenesis, but this hypothesis had not been tested. To elucidate the role of TIS11b in the AML1-ETO phenotype, we knocked down TIS11b by injecting an antisense morpholino oligonucleotide complementary to the […] of the zebrafish TIS11b gene (zTIS11b-MO).

[2] = test system: hematopoietic cells of Tg(hsp:AML1-ETO) zebrafish embryos; test: Cytology (Wright-Giemsa) of blood extracted from Tg(hsp:AML1-ETO) embryos; type: in vivo; conditions: 200 μM morpholino solution injected; mild heat treatment
Source text: Blood cells were collected from anesthetized wild-type and AML1-ETO embryos at 40 hpf by transferring live fish to phosphate buffered saline containing 50 U/ml heparin, 1% bovine serum albumin, and 0.006% tricaine. Tails were excised posterior to the yolk extension (at approximately the site of the posterior ICM) using a scalpel. Blood cells were extruded from the site of excision using the blunt edge of the scalpel and collected using a micropipette.
For cytological analyses, blood cells collected from the zebrafish embryos were transferred onto glass slides by cytospin and stained by Protocol® Wright-Giemsa stain (Fisher Diagnostics) following manufacturer's instruction. To label red blood cells in the zebrafish embryos, whole-mount cytochemistry staining with […] was performed as previously described (Weinstein et al., Development 123:303-309, 1996).

hAML1-MO: morpholino antisense oligonucleotide 5′-CTGGCATCTACGGGGATACGCATCA (SEQ ID NO:3), targets the translation start codon of human AML1 (all phosphorodiamidate morpholino (PMO); listed as Homo sapiens)
percentage of AML1-ETO-expressing embryos without circulating blood [1]: less than 10% | percentage of AML1-ETO-expressing embryos without circulating blood ([1]; listed as HAML1-MO): 6.7%

zTIS11b-MO: morpholino antisense oligonucleotide 5′-ACTTTTCTCCATACCTTGTTGTTGA (SEQ ID NO:4), targets the splice donor site of zebrafish TIS11b transcripts (all phosphorodiamidate morpholino (PMO))
blast cells in blood of injected Tg(hsp:AML1-ETO) embryos by cytological analysis [2]: accumulation of hematopoietic blast cells; also recorded: abundant immature blast-like cells | percentage of injected Tg(hsp:AML1-ETO) embryos exhibiting the AML1-ETO (lack of circulation) phenotype ([1]; 200 μM morpholino solution injected, mild heat treatment, uninjected less than 30%): 98%

CC1=C(/C=C/C(C)=C/C=C/C(C)=C/C(=O)O)C(C)(C)CCC1 [ATRA, all-trans retinoic acid]
percentage of embryos possessing circulation ([1]; 10 pM added at 24 hpf, three 1-hour 37° C. heat treatments at 4, 16, 24 hpf, scored at 40 hpf, vehicle 20%, p=0.0085): 36% | degree of rescue at higher concentrations ([1]; concentrations above 10 pM (range tested 1 pM to 1 nM)): did not increase
